Patent US20040063843A1, “Coating solutions” (Honeywell International, Inc., priority 2002, published 2004)

What was measured:
[1] = Surface tension measurement, Nouy ring method; format: physicochemical; details: 20 ml aliquot, Kruss Model K 10 ST; liquid carrier tetrafluoropropanol, no coating moiety
Experimental: Samples of coating solution (Examples 8, 9, 10, and 11) were prepared by blending in a vessel a measured volume of a liquid carrier (tetrafluoropropanol) and a fluorocarbon surface tension-reducing agent (1,1,1,3,3-pentafluoropropane, HFC245fa) to give the Vol. % compositions indicated in Table 3, below.
Surface tension was measured using the Nouy ring method and a Kruss Instrument Model K 10 ST.
In a typical determination, a 20 ml aliquot of the liquid to be tested was placed in the instrument and the surface tension was measured by the published procedure described above. Measurements were carried out for neat tetrafluropropanol (a liquid carrier, Table 3, Comparative Example #3), neat 1,1,1,3,3-pentafluropropane (HFC245fa, as a fluorocarbon surface tension-reducing agent, Table 3, Example # 11), and coating solution formulations (sans a coating moiety) comprising mixtures of tetrafluropropanol with 25 Vol. %, 50 Vol. %, and 75 Vol. % 1,1,1,3,3-pentafluropropane (Table 3, Examples 8, 9 and 10 respectively).

[2] = format: physicochemical
Experimental: Coating solvent was prepared by blending in a vessel a measured volume of a liquid carrier (tetrafluoropropanol) and as a surface tension-reducing agent 1,1,1,3,3-pentafluoropropane (HFC245fa) to give a solvent having the constituent volumetric ratios shown in Table I, below.
Solubility was determined by adding dye powder slowly to a weighed 100 ml aliquot of the coating solvent in a vessel. The solvent was stirred to dissolve the dye. When no more dye would dissolve, the dye addition was stopped and the solvent reweighed to determine the amount of dye that had been dissolved in the solvent.

Surface Tension [1]	Dye A Solubility [2]	Dye B Solubility [2]	Molecule
18 mN/m			FC(F)CC(F)(F)F [Example # 11, 1,1,1,3,3-pentafluropropane]
	10.7 g/100 ml	11.3 g/100 ml	Tetrafluoropropanol [compound 1]
